Test results reported in US11918645B2, “Vaccines against hepatitis B virus” (priority 2012, dated 2024).

Legend:
[1] = preparation of pool 22
HLA class II alleles = assay: ProImmune REVEAL MHC class II binding assay, summary over the seven alleles; parameters: species or system human; conditions: number of class II alleles for which positive binding (score >=15%) was detected
Description: (§1) The highly frequent HLA class II alleles HLA-DR1 (α1*01:01;β1*01:01), HLA-DR15 (α1*01:01;β1*15:01), HLA-DR3 (α1*01:01;β1*03:01), HLA-DR4 (α1*01:01;β1*04:01), HLA-DR11 (α1*01:01;β1*11:01), HLA-DR13 (α1*01:01;β1*13:01), and HLA-DR7 (α1*01:01;β1*07:01) were selected. Each peptide was given a score relative to the positive control peptide, which is a known T-cell epitope. The score of the test peptide is reported quantitatively as a percentage of the signal generated by the positive control peptide, and the peptide is indicated as having a putative pass or fail result. Good binders are considered to be those peptides with scores >=15% of the positive control as defined by Proimmune.

[2] = tested on: PBMC from chronic HBV-infected subjects; assay: IFNγ ELISpot of PBMC restimulated with individual unconjugated HBV long peptides (Example 5); assay type: cell-based, human; conditions: for T cell responses (IFNγ ELISpot), level and frequency of responders: HBeAg-negative inactive carriers and HBeAg-negative treated subjects, 5 μg/mL, 18 h, FIGS. 9 and 10; for T cell responses (IFNγ ELISpot) grouped by infecting HBV genotype: genotypes A, B, C & D, FIG. 11; for T cell responses (IFNγ ELISpot) grouped by ethnic background: three ethnic groups, FIG. 12
Description: One vial of PBMC from each subject (containing 1×10^7 cells) was thawed and lymphocyte numbers were determined using a Scepter™ automated handheld cell counter. PBMC were cultured in 2 mL culture medium (CM: RPMI-1640 Glutamax supplemented with 5% human AB serum) in 24 well cell culture plates at a concentration of 1×10^6 cells/mL for a total of 11 days. Cells were stimulated with a mixture of the nine HBV-derived long peptides described in Example 3.
Each peptide was used at a final concentration of 1 μg/peptide/mL. On Day 4, IL-2 and IL-15 were added to the cultures to final concentrations of 10 IU/mL and 10 ng/mL respectively. On Day 10, cells were washed twice in CM and cultured with 10 IU/mL IL-2 for 1 additional day. On Day 11, cells were washed twice in CM, counted and incorporated in a human IFNγ (interferon-gamma) ELISpot assay or intracellular cytokine staining.
Cells from short term cultures were plated in triplicate wells at 5×10^4 PBMC/well. Final antigen concentrations used were: 5 μg/mL for each individual peptides; PHA positive control: 1 μg/mL.

[3] = molecular target: T1, HLA-DR7 (α1*01:01;β1*07:01) (Homo sapiens, UniProt P01903+P01911, A100R/A102G/A103Q/D57E/D86V/E43K/F76Y/K127E/L162R/M171V/P40G/Q125H/Q99D/R195Q/R33Q/R42Y/R54Q/S133A/S149N/S66F/T210M/V115G/Y107V/Y59L/Y89S); assay: ProImmune REVEAL MHC class II binding assay of long peptides; conditions: percentage of the signal of the positive control peptide; positive binding score >=15%
T1 construct: purchased ProImmune
Description: as §1

[4] = molecular target: T2, HLA-DR15 (α1*01:01;β1*15:01) (Homo sapiens, UniProt P01903+P01911); assay: as above; conditions: percentage of the signal of the positive control peptide; positive binding score >=15%
T2 construct: purchased ProImmune
Description: as §1

HLA-B*0702 = molecular target: T3, HLA-B*0702 (Homo sapiens, UniProt P01889); assay: ProImmune REVEAL MHC class I binding assay of nonamers; conditions: score as % of positive control peptide
T3 construct: purchased ProImmune
Description: (§2) The number of HLA class I binding registers contained in each peptide may be determined by determining the ability of the peptide to bind to a range of frequently occurring HLA class I molecules. HLA class I binding may be measured using the ProImmune REVEAL® MHC-peptide Binding Assay (ProImmune Ltd, Oxford, UK). The REVEAL™ MHC peptide-binding assay measures the ability of each peptide to stabilize the ternary MHC-peptide complex for […], HLA-A*0201, HLA¬A*0301, HLA-A*2402, HLA-B*0702, HLA-B*0801, HLA-B*3501 representative of main HLA class I supertypes. Each tested peptide is given a score relative to a pass/fail control peptide and also compared to a positive control peptide.
(§3) Detection is based on the presence or absence of the native conformation of the MHC-peptide complex. The highly frequent HLA class I alleles (HLA-A*0201, A*0301, A*1101, A*2402, B*0702, B*0801, and B*3501) were selected. Binding to MHC molecules was compared to that of a known T-cell epitope, a positive control peptide, with very strong binding properties. […] The score of the test peptide is reported quantitatively as a percentage of the signal generated by the positive control peptide, and the peptide is indicated as having a putative pass or fail result. Good binders are considered to be those peptides with scores 45% of the positive control as defined by ProImmune.

HLA-A*0301 = molecular target: T4, HLA-A*0301 (Homo sapiens, UniProt P04439); assay: as above; conditions: score as % of positive control peptide
T4 construct: purchased ProImmune
Description: as §2, §3

HLA-A*2402 = HLA-A*2402 (Homo sapiens, UniProt P04439, D101N/D140Y/D185E/E176V/E190D/F33S/G103R/G107R/I119L/I121M/I306V/K335N/L105A/L180Q/L300P/N151K/N90K/Q86E/Q94H/R106L/R138H/R89G/T104I/T345S/V100E/W191G/Y123F); assay: as above; conditions: score as % of positive control peptide
Description: as §2, §3

HLA-B*3501 = HLA-B*3501 (Homo sapiens, UniProt P01889, A329T/A93T/A95T/C349S/D201E/D98Y/E176V/E187L/E204Q/E69T/I218V/K202T/L119I/Q94N/R155S/R180L/S121R/S35A/S48A/T118I/V127L/V306I/V36M/Y140S/Y91F); assay: as above; conditions: score as % of positive control peptide
Description: as §2, §3

HLA-A*1101 = molecular target: T5, HLA-A*1101 (Homo sapiens, UniProt P04439, A114D/D185E/E176A/F33Y/L180Q/S129P/T187R); assay: as above; conditions: score as % of positive control peptide
T5 construct: purchased ProImmune
Description: as §2, §3

HLA-A*0201 = HLA-A*0201 (Homo sapiens, UniProt P04439, D140Y/D185E/D98H/E176V/E277Q/G131W/G231S/I119V/I121R/I166T/I218V/L300P/L318F/N151K/N90K/P208A/P217A/Q86G/Q94H/R138H/R169H/T345S); assay: as above; conditions: score as % of positive control peptide
Description: as §2, §3

HLA-B*0801 = HLA-B*0801 (Homo sapiens, UniProt P01889, A93T/A95T/D138N/E176V/E187T/K202T/Q94N/R180D/S35A/V36M/Y33D/Y91F); assay: as above; conditions: score as % of positive control peptide
Description: as §2, §3

HLA class I alleles = assay: ProImmune REVEAL MHC class I binding assay, summary over the seven alleles; parameters: species or system human; conditions: for Number of allele (b): number of class I alleles for which positive binding was detected; for Number of HLA binders (a): total number binding epitopes detected for each long peptide, seven class I alleles
Description: as §2, §3

[5] = tested on: HLA-DR1 (α1*01:01;β1*01:01); assay: ProImmune REVEAL MHC class II binding assay of long peptides; parameters: species or system human; conditions: percentage of the signal of the positive control peptide; positive binding score >=15%
Description: as §1

[6] = tested on: HLA-DR3 (α1*01:01;β1*03:0); assay: as above; parameters: species or system human; conditions: percentage of the signal of the positive control peptide; positive binding score >=15%
Description: as §1

[7] = molecular target: T6, HLA-DR13 (α1*01:01;β1*13:01) (Homo sapiens, UniProt P01903+P01911, A100E/A169T/K41T/L162R/M171V/P40S/Q125H/Q178H/Q39Y/Q99D/R42S/S66N/W38E/Y61H); assay: as above; conditions: percentage of the signal of the positive control peptide; positive binding score >=15%
T6 construct: purchased ProImmune
Description: The highly frequent HLA class II alleles HLA-DR1 (α1*01:01;β1*01:01), HLA-DR15 (α1*01:01;β1*15:01), HLA-DR3 (α1*01:01;β1*03:01), HLA-DR4 (α1*01:01;β1*04:01), HLA-DR11 (α1*01:01;β1*11:01), HLA-DR13 (α1*01:01;β1*13:01), and HLA-DR7 (α1*01:01;β1*07:01) were selected. Each peptide was given a score relative to the positive control peptide, which is a known T-cell epitope.

[8] = tested on: HLA-DP4 (α1*01:03;β1*04:01); assay: as above; parameters: species or system human; conditions: percentage of the signal of the positive control peptide; positive binding score >=15%

T6 sequence (P01903 26-216, other chains not shown): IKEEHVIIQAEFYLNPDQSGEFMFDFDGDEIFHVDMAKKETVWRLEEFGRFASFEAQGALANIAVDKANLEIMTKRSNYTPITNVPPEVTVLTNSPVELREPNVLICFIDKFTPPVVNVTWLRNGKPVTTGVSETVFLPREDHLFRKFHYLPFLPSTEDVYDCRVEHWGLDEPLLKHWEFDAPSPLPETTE

Row | Molecule | dispersibility / solubility [1] | Number of allele (a) (HLA class II alleles) | T cell responses (IFNγ ELISpot), level and frequency of responders [2] | T cell responses (IFNγ ELISpot) grouped by infecting HBV genotype [2] | T cell responses (IFNγ ELISpot) grouped by ethnic background [2] | binding score, HLA-DR7 (α1*01:01;β1*07:01) [3] [%] | binding score, HLA-DR15 (α1*01:01;β1*15:01) [4] [%] | Number of nonamers having a binding score >= 45%, HLA-B*0702 (HLA-B*0702) | Number of nonamers having a binding score >= 45%, HLA-A*0301 (HLA-A*0301) | Number of nonamers having a binding score >= 45%, HLA-A*2402 (HLA-A*2402) | Number of nonamers having a binding score >= 45%, HLA-B*3501 (HLA-B*3501) | Number of nonamers having a binding score >= 45%, HLA-A*1101 (HLA-A*1101) | Number of nonamers having a binding score >= 45%, HLA-A*0201 (HLA-A*0201) | Number of nonamers having a binding score >= 45%, HLA-B*0801 (HLA-B*0801) | Number of allele (b) (HLA class I alleles) | Number of HLA binders (a) (HLA class I alleles) | binding score, HLA-DR1 (α1*01:01;β1*01:01) [5] [%] | binding score, HLA-DR3 (α1*01:01;β1*03:0) [6] [%] | binding score, HLA-DR13 (α1*01:01;β1*13:01) [7] [%] | binding score, HLA-DP4 (α1*01:03;β1*04:01) [8] [%]
1 | CC[C@H](C)[C@H](NC(=O)[C@H](Cc1ccccc1)NC(=O)[C@H](CC(C)C)NC(=O)[C@H](Cc1ccccc1)NC(=O)[C@@H](NC(=O)[C@@H](NC(=O)[C@H](Cc1ccccc1)NC(=O)[C@H](CCCNC(=N)N)NC(=O)[C@H](CCCNC(=N)N)NC(=O)[C@@H](N)CC(C)C)[C@@H](C)CC)[C@@H](C)CC)C(=O)N[C@@H](CC(C)C)C(=O)N[C@@H](CC(C)C)C(=O)N[C@@H](CC(C)C)C(=O)N[C@@H](CS)C(=O)N[C@@H](CC(C)C)C(=O)N[C@H](C(=O)N[C@@H](Cc1ccccc1)C(=O)N[C@@H](CC(C)C)C(=O)N[C@@H](CC(C)C)C(=O)N[C@H](C(=O)O)C(C)C)[C@@H](C)CC [SEQ ID NO: 212] | could not be dispersed due to insolubility |  |  |  |  |  |  |  |  |  |  |  |  |  |  |  |  |  |  | 
2 | CC[C@H](C)[C@H](NC(=O)[C@H](CC(C)C)NC(=O)[C@H](CS)NC(=O)[C@H](CC(C)C)NC(=O)[C@H](CC(C)C)NC(=O)[C@H](CC(C)C)NC(=O)[C@@H](NC(=O)[C@@H](N)Cc1ccccc1)[C@@H](C)CC)C(=O)N[C@@H](Cc1ccccc1)C(=O)N[C@@H](CC(C)C)C(=O)N[C@@H](CC(C)C)C(=O)N[C@H](C(=O)N[C@@H](CC(C)C)C(=O)N[C@@H](CC(C)C)C(=O)N[C@@H](CC(=O)O)C(=O)N[C@@H](Cc1ccc(O)cc1)C(=O)N[C@@H](CCC(N)=O)C(=O)NCC(=O)N[C@@H](CCSC)C(=O)N[C@@H](CC(C)C)C(=O)O)C(C)C [SEQ ID NO: 213] | could not be dispersed due to insolubility |  |  |  |  |  |  |  |  |  |  |  |  |  |  |  |  |  |  | 
3 | NP856(K): unconjugated HBV long peptide, core 839-873 + KKK (LTFGRETVLEYLVSFGVWIRTPPAYRPPNAPILSTKKK; HBV CONSENSUS SEQUENCE) |  | 0 | highest level of responses in both patient populations and in the highest proportion of subjects | highest responses across all four genotypes A, B, C & D | highest responses across all three ethnic groups | 0.40 | 5.71 | 2 | 0 | 4 | 0 | 0 | 4 | 1 | 4 | 11 | 2.33 | 0.13 | 0.00 | 10.72
4 | NP877: unconjugated HBV long peptide, core 860-890 |  | 1 | highest level of responses in both patient populations and in the highest proportion of subjects | highest responses across all four genotypes A, B, C & D | highest responses across all three ethnic groups | 2.78 | 0.09 | 1 | 0 | 2 | 0 | 0 | 2 | 1 | 4 | 6 | 0.24 | 5.58 |  | 0.04
